Columns and labels:
[1] = target: T1, Mcm467 (Saccharomyces cerevisiae, UniProt P30665+P38132+P53091); experiment: Steady-state ATP hydrolysis by Mcm467; assay type: biochemical; conditions: 1 mM compound, 100 nM hexamer
T1 construct: made in house; host or cells: baculovirus-infected insect cells

[2] = target: SV40 large TAg (T-antigen) (Simian virus 40, UniProt P03070); experiment: biochemical; parameters: species or system SV40 (simian virus 40); conditions: DNA unwinding, 100 nM hexamer, inhibitor preincubation; […]; read-out: IC50 T-antigen
Sequence of SV40 large TAg (T-antigen) (P03070 whole entry, looked up): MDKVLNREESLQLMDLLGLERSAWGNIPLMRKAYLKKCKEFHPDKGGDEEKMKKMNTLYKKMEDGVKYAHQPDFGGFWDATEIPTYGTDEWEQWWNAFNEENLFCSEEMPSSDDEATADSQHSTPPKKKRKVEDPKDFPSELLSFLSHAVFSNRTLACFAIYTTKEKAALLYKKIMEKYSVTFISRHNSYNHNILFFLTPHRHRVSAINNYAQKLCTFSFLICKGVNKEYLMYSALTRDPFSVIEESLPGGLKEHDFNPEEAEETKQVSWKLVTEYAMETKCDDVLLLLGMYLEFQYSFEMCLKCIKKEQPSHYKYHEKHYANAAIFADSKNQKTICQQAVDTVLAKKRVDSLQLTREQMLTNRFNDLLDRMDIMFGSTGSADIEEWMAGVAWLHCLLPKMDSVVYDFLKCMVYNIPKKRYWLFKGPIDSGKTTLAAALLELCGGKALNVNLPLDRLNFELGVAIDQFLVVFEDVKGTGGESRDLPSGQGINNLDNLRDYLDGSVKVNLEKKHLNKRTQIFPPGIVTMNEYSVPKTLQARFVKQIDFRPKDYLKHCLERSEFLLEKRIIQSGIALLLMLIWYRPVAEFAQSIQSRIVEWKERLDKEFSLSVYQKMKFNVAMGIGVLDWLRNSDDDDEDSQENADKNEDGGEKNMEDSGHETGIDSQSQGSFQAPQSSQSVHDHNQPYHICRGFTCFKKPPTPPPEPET

[3] = tested on: Wheat Germ Topo I; experiment: Topo I activity inhibition assay; conditions: 1 mM inhibitor added together with Topo I (Figure 3D)
[4] = tested on: T2, Mcm2-7; experiment: ssDNA double filter-binding assay, Mcm2-7; parameters: species or system Saccharomyces cerevisiae; conditions: 1 mM compound, 150 nM helicase
T2 construct: made in house; host or cells: baculovirus-infected insect cells

[5] = target: T2, Mcm2-7; experiment: Mcm2-7 helicase (DNA unwinding) assay; assay type: biochemical, Saccharomyces cerevisiae; conditions: DNA unwinding, 100 nM hexamer, inhibitor preincubation; value (95% CI); read-out: IC50 Mcm2-7
[6] = tested on: T2, Mcm2-7; experiment: Steady-state ATP hydrolysis by Mcm2-7; assay type: biochemical, Saccharomyces cerevisiae; conditions: 1 mM compound, 100 nM hexamer
[7] = target: T1, Mcm467; experiment: Mcm467 helicase (DNA unwinding) assay; assay type: biochemical; conditions: DNA unwinding, 100 nM hexamer, inhibitor preincubation; value (95% CI); read-out: IC50 Mcm467
[8] = target: T1, Mcm467; experiment: ssDNA double filter-binding assay, Mcm467; conditions: 1 mM compound, 150 nM helicase
[9] = tested on: pUC19; experiment: DNA intercalation assay (Topo I-relaxed plasmid); assay type: biochemical; conditions: 1 mM inhibitor added after plasmid relaxation (Figure 3C)
Description: To examine this model, we tested our inhibitors in a standard topoisomerase assay. The rationale of this assay is that intercalating compounds will introduce supercoils into a fully relaxed plasmid. Topo I will remove these introduced supercoils, but after quenching and gel electrophoresis the intercalator will diffuse away and produce a detectable compensatory supercoiling increase.

[10] = target: T3, SV40 large TAg (Simian virus 40, UniProt P03070); experiment: Steady-state ATP hydrolysis by TAg; assay type: biochemical, SV40 (simian virus 40); conditions: 1 mM compound, 100 nM hexamer
T3 construct: made in house
T3 sequence (P03070 whole entry): as the sequence (P03070 whole entry, looked up) above

[11] = tested on: S. cerevisiae ∆erg6 (UPY675); experiment: Yeast growth inhibition, 96-well assay, ∆erg6 strain; assay type: cell-based, Saccharomyces cerevisiae; conditions: Saccharomyces cerevisiae, 24 h, read-out: IC50 Yeast
[12] = Solubility in assay; conditions: helicase assay conditions

T1 sequence (P30665 whole entry): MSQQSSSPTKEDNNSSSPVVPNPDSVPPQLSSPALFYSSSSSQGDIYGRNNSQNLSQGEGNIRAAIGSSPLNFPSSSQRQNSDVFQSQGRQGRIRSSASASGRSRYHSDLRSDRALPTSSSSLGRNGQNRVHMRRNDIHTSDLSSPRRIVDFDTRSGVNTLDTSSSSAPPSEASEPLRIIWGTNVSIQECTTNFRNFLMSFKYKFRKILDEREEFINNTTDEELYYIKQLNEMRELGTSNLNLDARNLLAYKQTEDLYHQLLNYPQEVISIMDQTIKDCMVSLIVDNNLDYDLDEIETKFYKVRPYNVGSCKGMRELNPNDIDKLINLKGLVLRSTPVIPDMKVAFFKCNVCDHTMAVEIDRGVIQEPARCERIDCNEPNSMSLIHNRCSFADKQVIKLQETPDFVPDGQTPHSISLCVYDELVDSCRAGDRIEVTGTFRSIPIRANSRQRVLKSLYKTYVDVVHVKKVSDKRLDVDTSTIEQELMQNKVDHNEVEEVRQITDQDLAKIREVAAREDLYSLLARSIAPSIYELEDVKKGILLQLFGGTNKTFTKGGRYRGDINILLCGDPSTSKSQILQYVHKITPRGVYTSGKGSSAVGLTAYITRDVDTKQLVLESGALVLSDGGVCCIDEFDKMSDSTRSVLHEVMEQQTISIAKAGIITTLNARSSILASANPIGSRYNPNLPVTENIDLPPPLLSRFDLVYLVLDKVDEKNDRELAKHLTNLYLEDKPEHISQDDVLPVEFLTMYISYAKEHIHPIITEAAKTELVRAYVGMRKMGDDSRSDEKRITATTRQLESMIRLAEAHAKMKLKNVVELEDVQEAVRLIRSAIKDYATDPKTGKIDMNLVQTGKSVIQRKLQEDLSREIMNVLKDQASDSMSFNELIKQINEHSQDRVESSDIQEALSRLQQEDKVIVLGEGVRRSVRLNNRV
T1 sequence (P53091 whole entry): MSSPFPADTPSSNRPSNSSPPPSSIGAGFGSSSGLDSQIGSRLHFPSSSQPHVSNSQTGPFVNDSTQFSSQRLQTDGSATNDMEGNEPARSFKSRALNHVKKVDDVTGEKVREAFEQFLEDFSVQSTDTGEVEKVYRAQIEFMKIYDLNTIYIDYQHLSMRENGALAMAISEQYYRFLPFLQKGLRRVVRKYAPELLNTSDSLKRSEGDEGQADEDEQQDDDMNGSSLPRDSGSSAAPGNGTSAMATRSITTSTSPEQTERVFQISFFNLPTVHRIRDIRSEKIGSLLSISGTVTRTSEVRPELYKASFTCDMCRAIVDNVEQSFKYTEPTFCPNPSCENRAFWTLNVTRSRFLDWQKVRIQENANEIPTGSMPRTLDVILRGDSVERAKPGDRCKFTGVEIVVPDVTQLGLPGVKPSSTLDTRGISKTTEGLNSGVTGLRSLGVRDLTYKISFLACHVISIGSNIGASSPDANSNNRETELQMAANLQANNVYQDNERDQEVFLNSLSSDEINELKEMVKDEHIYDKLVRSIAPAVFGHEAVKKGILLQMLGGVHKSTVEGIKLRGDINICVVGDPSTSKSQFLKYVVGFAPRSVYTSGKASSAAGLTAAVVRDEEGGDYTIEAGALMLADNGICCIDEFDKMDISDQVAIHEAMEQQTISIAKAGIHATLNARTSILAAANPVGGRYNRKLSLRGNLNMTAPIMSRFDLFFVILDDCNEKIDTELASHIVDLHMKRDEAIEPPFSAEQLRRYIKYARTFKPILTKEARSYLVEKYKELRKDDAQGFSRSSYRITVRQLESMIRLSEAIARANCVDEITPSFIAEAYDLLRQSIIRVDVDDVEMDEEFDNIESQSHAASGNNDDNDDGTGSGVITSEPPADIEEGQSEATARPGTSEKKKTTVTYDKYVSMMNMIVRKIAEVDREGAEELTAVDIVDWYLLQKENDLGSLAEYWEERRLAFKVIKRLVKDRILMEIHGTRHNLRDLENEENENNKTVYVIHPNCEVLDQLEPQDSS
T1 sequence (P38132 whole entry): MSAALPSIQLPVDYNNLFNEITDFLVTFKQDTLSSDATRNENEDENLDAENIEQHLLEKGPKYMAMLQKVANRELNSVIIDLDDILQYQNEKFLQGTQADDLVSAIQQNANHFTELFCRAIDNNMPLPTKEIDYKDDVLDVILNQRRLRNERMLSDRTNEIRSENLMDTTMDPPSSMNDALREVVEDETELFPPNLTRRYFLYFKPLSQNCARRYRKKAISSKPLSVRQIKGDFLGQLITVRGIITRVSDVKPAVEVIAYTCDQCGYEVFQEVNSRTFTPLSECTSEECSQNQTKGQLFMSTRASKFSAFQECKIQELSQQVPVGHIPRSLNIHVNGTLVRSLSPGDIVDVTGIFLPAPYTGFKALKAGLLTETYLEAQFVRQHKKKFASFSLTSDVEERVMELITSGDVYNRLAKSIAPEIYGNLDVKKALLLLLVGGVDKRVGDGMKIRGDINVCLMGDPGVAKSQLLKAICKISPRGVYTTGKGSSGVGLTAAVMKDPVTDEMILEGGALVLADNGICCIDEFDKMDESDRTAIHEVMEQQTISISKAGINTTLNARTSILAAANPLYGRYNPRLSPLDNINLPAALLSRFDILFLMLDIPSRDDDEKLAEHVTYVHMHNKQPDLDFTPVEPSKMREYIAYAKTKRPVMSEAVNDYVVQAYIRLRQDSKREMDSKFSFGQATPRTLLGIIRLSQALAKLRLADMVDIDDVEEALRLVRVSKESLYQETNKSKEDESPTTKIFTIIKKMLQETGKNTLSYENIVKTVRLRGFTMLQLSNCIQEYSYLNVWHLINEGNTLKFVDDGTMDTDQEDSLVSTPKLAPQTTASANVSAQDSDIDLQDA

SMILES	effect on ATP hydrolysis of Mcm467 [1]	IC50 [2] [µM]	Topo I inhibition [3]	effect on ssDNA binding of Mcm2-7 [4]	IC50 [5] [µM]	effect on ATP hydrolysis of Mcm2-7 [6]	IC50 [7] [µM]	effect on ssDNA binding of Mcm467 [8]	DNA intercalation [9]	effect on ATP hydrolysis of TAg [10]	IC50 [11] [µM]	solubility [12]
CC1=C(C(=O)OCc2ccccc2)C(c2ccc(-c3ccccc3)cc2)NC(=O)N1CCCCCC(=O)O (stereo not shown) [MAL2-11b, reference compound]	completely inhibits	192	Topo I inhibitor	inhibit	96	completely inhibits	112	inhibit	little or no intercalation	completely inhibits	–	–
CCn1cc(C(=O)O)c(=O)c2c(N)c(F)c(N3CCNCC3)c(F)c21 [compound 271327]	essentially no inhibition	> 1000	–	–	361	essentially no inhibition	460	–	little or no intercalation	essentially no inhibition	700	limited solubility

Source: publication PMC3791872 (Bioscience Reports, 2013)
